Reference: PubChem BioAssay (NCI)
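These data come from cells grown in 96-well plates and exposed to compound for 48 hours at five concentrations. At the GI50, growth is halved. TGI is the concentration that stops growth completely.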

What was measured:
Assay in all cases: growth of human tumour cells (NCI), 48 h
[1] = system: 786-0 renal
[2] = system: A498 renal
[3] = system: A549 NSCLC
[4] = system: ACHN renal
[5] = system: BT-549 breast
[6] = system: CAKI-1 renal
[7] = system: CCRF-CEM leukemia
[8] = system: COLO 205 colon
[9] = system: DU-145 prostate
[10] = system: EKVX NSCLC
[11] = system: HCC-2998 colon
[12] = system: HCT-15 colon
[13] = system: HL-60(TB) leukemia
[14] = system: HOP-62 NSCLC
[15] = system: HOP-92 NSCLC
[16] = system: HS 578T breast
[17] = system: HT29 colon
[18] = system: IGROV1 ovarian
[19] = system: K-562 leukemia
[20] = system: KM12 colon
[21] = system: LOX IMVI melanoma
[22] = system: M14 melanoma
[23] = system: MALME-3M melanoma
[24] = system: MCF7 breast
[25] = system: MDA-MB-231 breast
[26] = system: MDA-MB-435
[27] = system: MOLT-4 leukemia
[28] = system: NCI-H226 lung
[29] = system: NCI-H23 lung
[30] = system: NCI-H460 lung
[31] = system: NCI-H522 lung
[32] = system: NCI/ADR-RES ovarian
[33] = system: OVCAR-4 ovarian
[34] = system: OVCAR-5 ovarian
[35] = system: OVCAR-8 ovarian
[36] = system: PC-3 prostate
[37] = system: RXF 393 renal
[38] = system: SF-268 CNS
[39] = system: SF-295 CNS
[40] = system: SF-539 CNS
[41] = system: SK-MEL-2 melanoma
[42] = system: SK-MEL-28 melanoma
[43] = system: SK-MEL-5 melanoma
[44] = system: SK-OV-3 ovarian
[45] = system: SN12C renal
[46] = system: SNB-19 CNS
[47] = system: SNB-75 CNS
[48] = system: SR leukemia
[49] = system: SW-620 colon
[50] = system: TK-10 renal
[51] = system: U251 CNS
[52] = system: UACC-257 melanoma
[53] = system: UACC-62 melanoma
[54] = system: UO-31 renal
[55] = system: HCT-116 colon
[56] = system: RPMI-8226 leukemia
[57] = system: T-47D breast

## CCCCCc1ccc(S(=O)(=O)Nc2cccc(-c3csc(NCCN4CCN(C)CC4)n3)c2)cc1
[1]
  GI50: 1670 nM
  TGI: 3.08 µM
[2]
  GI50: 1530 nM
  TGI: 3.12 µM
[3]
  GI50: 1720 nM
  TGI: 3.3 µM
[4]
  GI50: 1750 nM
  TGI: 3.24 µM
[5]
  GI50: 1560 nM
  TGI: 2.97 µM
[6]
  GI50: 1520 nM
  TGI: 3.19 µM
[7]
  GI50: 2590 nM
  TGI: 9.63 µM
[8]
  GI50: 1640 nM
  TGI: 3160 nM
[9]
  GI50: 1960 nM
  TGI: 3.92 µM
[10]
  GI50: 1670 nM
  TGI: 3.61 µM
[11]
  GI50: 1750 nM
  TGI: 3.24 µM
[12]
  GI50: 1680 nM
  TGI: 3.31 µM
[13]
  GI50: 2310 nM
  TGI: 5.34 µM
[14]
  GI50: 1730 nM
  TGI: 3.32 µM
[15]
  GI50: 1280 nM
  TGI: 2.73 µM
[16]
  GI50: 1830 nM
  TGI: 4.22 µM
[17]
  GI50: 1900 nM
  TGI: 3710 nM
[18]
  GI50: 1630 nM
  TGI: 3.18 µM
[19]
  GI50: 3020 nM
  TGI: > 100 µM
[20]
  GI50: 1720 nM
  TGI: 3.22 µM
[21]
  GI50: 1690 nM
  TGI: 3.13 µM
[22]
  GI50: 1770 nM
  TGI: 3.42 µM
[23]
  GI50: 1540 nM
  TGI: 2.99 µM
[24]
  GI50: 1690 nM
  TGI: 3.33 µM
[25]
  GI50: 1630 nM
  TGI: 3.3 µM
[26]
  GI50: 1700 nM
  TGI: 3.3 µM
[27]
  GI50: 3360 nM
  TGI: 14.6 µM
[28]
  GI50: 1850 nM
  TGI: 3.93 µM
[29]
  GI50: 1810 nM
  TGI: 3.62 µM
[30]
  GI50: 1780 nM
  TGI: 3.29 µM
[31]
  GI50: 1800 nM
  TGI: 3.43 µM
[32]
  GI50: 1840 nM
  TGI: 4.25 µM
[33]
  GI50: 2020 nM
  TGI: 5.18 µM
[34]
  GI50: 1890 nM
  TGI: 4.01 µM
[35]
  GI50: 1840 nM
  TGI: 3.5 µM
[36]
  GI50: 1860 nM
  TGI: 4.42 µM
[37]
  GI50: 1410 nM
  TGI: 2900 nM
[38]
  GI50: 1760 nM
  TGI: 3.63 µM
[39]
  GI50: 1860 nM
  TGI: 3.54 µM
[40]
  GI50: 1700 nM
  TGI: 3.11 µM
[41]
  GI50: 1760 nM
  TGI: 3.33 µM
[42]
  GI50: 1870 nM
  TGI: 3.36 µM
[43]
  GI50: 1780 nM
  TGI: 3190 nM
[44]
  GI50: 1750 nM
  TGI: 3.35 µM
[45]
  GI50: 2010 nM
  TGI: 4.48 µM
[46]
  GI50: 1960 nM
  TGI: 4.05 µM
[47]
  GI50: 1390 nM
  TGI: 2.89 µM
[48]
  GI50: 2470 nM
  TGI: > 100 µM
[49]
  GI50: 1660 nM
  TGI: 3.12 µM
[50]
  GI50: 1800 nM
  TGI: 3.61 µM
[51]
  GI50: 1700 nM
  TGI: 3.23 µM
[52]
  GI50: 1730 nM
  TGI: 3.27 µM
[53]
  GI50: 1820 nM
  TGI: 3.47 µM
[54]
  GI50: 1420 nM
  TGI: 2.94 µM

## CC(C)(C)c1cc(NC(=O)Nc2ccc(-c3cn4c5c(sc4n3)CCc3c[nH]cc3-5)cc2)no1
[1]
  GI50: 754 nM
  TGI: 2.1 µM
[2]
  GI50: 1040 nM
  TGI: 2.62 µM
[3]
  GI50: 2020 nM
  TGI: > 50 µM
[4]
  GI50: 1980 nM
  TGI: > 50 µM
[5]
  GI50: 1310 nM
  TGI: 4.22 µM
[6]
  GI50: 1490 nM
  TGI: > 50 µM
[7]
  GI50: 1790 nM
  TGI: > 50 µM
[8]
  GI50: 1000 nM
  TGI: 2230 nM
[9]
  GI50: 2310 nM
  TGI: > 50 µM
[10]
  GI50: 2050 nM
  TGI: > 50 µM
[11]
  GI50: 1680 nM
  TGI: 7.49 µM
[55]
  GI50: 1700 nM
  TGI: 12.5 µM
[12]
  GI50: 1190 nM
  TGI: 4.28 µM
[13]
  GI50: 1510 nM
  TGI: > 50 µM
[14]
  GI50: 1150 nM
  TGI: 2.74 µM
[15]
  GI50: 1060 nM
  TGI: 3.67 µM
[16]
  GI50: 950 nM
  TGI: 2.94 µM
[17]
  GI50: 949 nM
  TGI: 1920 nM
[18]
  GI50: 2360 nM
  TGI: > 50 µM
[19]
  GI50: 1240 nM
  TGI: > 50 µM
[20]
  GI50: 1550 nM
  TGI: 6.1 µM
[21]
  GI50: 1300 nM
  TGI: 3.23 µM
[22]
  GI50: 1450 nM
  TGI: 4.9 µM
[23]
  GI50: 1440 nM
  TGI: 4.06 µM
[24]
  GI50: 1080 nM
  TGI: 3.12 µM
[25]
  GI50: 2000 nM
  TGI: 18.1 µM
[26]
  GI50: 1970 nM
  TGI: > 50 µM
[27]
  GI50: 1260 nM
  TGI: > 50 µM
[28]
  GI50: 2280 nM
  TGI: > 50 µM
[29]
  GI50: 1420 nM
  TGI: 4.87 µM
[30]
  GI50: 1570 nM
  TGI: 5.34 µM
[31]
  GI50: 1690 nM
  TGI: 6.7 µM
[32]
  GI50: 1890 nM
  TGI: > 50 µM
[33]
  GI50: 2620 nM
  TGI: > 50 µM
[34]
  GI50: 2960 nM
  TGI: > 50 µM
[35]
  GI50: 2480 nM
  TGI: > 50 µM
[36]
  GI50: 1540 nM
  TGI: > 50 µM
[56]
  GI50: 1080 nM
  TGI: 4.14 µM
[37]
  GI50: 333 nM
  TGI: 1800 nM
[38]
  GI50: 1920 nM
  TGI: 16.5 µM
[39]
  GI50: 738 nM
  TGI: 1.74 µM
[40]
  GI50: 875 nM
  TGI: 4.17 µM
[41]
  GI50: 1240 nM
  TGI: 3.15 µM
[42]
  GI50: 1540 nM
  TGI: 9.5 µM
[43]
  GI50: 1020 nM
  TGI: 2110 nM
[44]
  GI50: 2120 nM
  TGI: 31.3 µM
[45]
  GI50: 3000 nM
  TGI: > 50 µM
[46]
  GI50: 1580 nM
  TGI: > 50 µM
[47]
  GI50: 990 nM
  TGI: 4.01 µM
[49]
  GI50: 2130 nM
  TGI: 15 µM
[57]
  GI50: 1190 nM
  TGI: 3.75 µM
[50]
  GI50: 3410 nM
  TGI: > 50 µM
[51]
  GI50: 738 nM
  TGI: 3.78 µM
[52]
  GI50: 2310 nM
  TGI: 13.9 µM
[53]
  GI50: 1640 nM
  TGI: 5.88 µM
[54]
  GI50: 1330 nM
  TGI: 3.9 µM

## NC(=O)c1c(NC(=O)c2cccc(C(F)(F)F)c2F)sc2c1CCC(=O)C2
[1]
  GI50: 2200 nM
  TGI: > 100 µM
[2]
  GI50: > 100000 nM
  TGI: > 100 µM
[4]
  GI50: 337 nM
  TGI: > 100 µM
[5]
  GI50: 327 nM
  TGI: > 100 µM
[7]
  GI50: 212 nM
  TGI: > 100 µM
[9]
  GI50: > 100000 nM
  TGI: > 100 µM
[55]
  GI50: 306 nM
  TGI: > 100 µM
[14]
  GI50: 6690 nM
  TGI: > 100 µM
[16]
  GI50: 831 nM
  TGI: > 100 µM
[19]
  GI50: 231 nM
  TGI: > 100 µM
[36]
  GI50: 270 nM
  TGI: > 100 µM
[56]
  GI50: 231 nM
[39]
  GI50: 3090 nM
  TGI: > 100 µM
[41]
  GI50: > 100000 nM
  TGI: > 100 µM
[44]
  GI50: > 100000 nM
  TGI: > 100 µM
[46]
  GI50: 577 nM
  TGI: > 100 µM
[47]
  GI50: 2160 nM
  TGI: 39.1 µM
[48]
  GI50: 326 nM
  TGI: > 100 µM
[51]
  GI50: 315 nM
  TGI: > 100 µM
